In US7179941B2, “Carbonylamino-substituted acyl phenyl urea derivatives, process for their preparation and their use” (Sanofi-Aventis Deutschland GmbH, priority 2003, dated 2007):

Biological target: T1, human glycogen phosphorylase a (Homo sapiens, UniProt P06737)
T1 sequence (P06737 1-847): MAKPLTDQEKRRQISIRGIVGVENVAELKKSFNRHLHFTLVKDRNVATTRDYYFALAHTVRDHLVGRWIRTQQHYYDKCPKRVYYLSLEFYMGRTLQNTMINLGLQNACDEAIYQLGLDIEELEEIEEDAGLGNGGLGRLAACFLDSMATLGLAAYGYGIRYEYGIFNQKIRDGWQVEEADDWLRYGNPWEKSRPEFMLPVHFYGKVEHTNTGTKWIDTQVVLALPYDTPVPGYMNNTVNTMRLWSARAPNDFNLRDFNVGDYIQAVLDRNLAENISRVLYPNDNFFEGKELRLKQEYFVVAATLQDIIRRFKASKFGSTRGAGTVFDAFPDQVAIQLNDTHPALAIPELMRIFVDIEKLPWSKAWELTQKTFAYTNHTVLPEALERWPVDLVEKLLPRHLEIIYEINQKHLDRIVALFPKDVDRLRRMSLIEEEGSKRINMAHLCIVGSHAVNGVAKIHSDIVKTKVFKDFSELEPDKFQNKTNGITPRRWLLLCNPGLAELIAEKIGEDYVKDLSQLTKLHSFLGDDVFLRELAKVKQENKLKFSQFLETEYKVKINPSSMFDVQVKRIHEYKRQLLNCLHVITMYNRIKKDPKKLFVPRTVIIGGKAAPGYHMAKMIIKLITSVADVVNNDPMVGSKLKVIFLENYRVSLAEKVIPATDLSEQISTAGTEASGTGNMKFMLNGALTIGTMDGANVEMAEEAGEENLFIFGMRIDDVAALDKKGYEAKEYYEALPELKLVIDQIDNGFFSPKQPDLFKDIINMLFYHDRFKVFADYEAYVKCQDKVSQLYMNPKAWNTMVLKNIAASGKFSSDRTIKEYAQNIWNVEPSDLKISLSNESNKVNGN
Test: Glycogen phosphorylase a activity test
Type: biochemical
Conditions: 10 μM test substance; GPa measured in reverse direction (glycogen synthesis from glucose 1-phosphate)
Protocol: Glycogen Phophorylase a Activity Test
The effect of compounds on the activity of the active form of glycogen phosphorylase (GPa) was measured in the reverse direction by monitoring the synthesis of glycogen from glucose 1-phosphate by determining the release of inorganic phosphate. All reactions were carried out as duplicate determinations in 96-well microtiter plates (half area plates, Costar No. 3696), and the change in absorption as a consequence of the formation of the reaction product was measured at the wavelength specified below in a Multiskan Ascent Elisa Reader (Lab Systems, Finland).
In order to measure the GPa enzyme activity in the reverse direction, the conversion of glucose 1-phosphate to glycogen and inorganic phosphate was measured by the general method of Engers et al. (Engers HD, Shechosky S, Madsen NB, Can J Biochem 1970 July;48(7):746–754) with the following modifications: human glycogen phosphorylase a (for example containing 0.76 mg of protein/ml (Aventis Pharma Deutschland GmbH), dissolved in buffer solution E (25 mM P-glycerophosphate, pH 7.0, 1 mM EDTA and 1 mM dithiotreitol) was diluted to a concentration of 10 μg of protein/ml with buffer T (50 mM Hepes, pH 7.0, 100 mM KCl, 2.5 mM EDTA, 2.5 mM MgCl2.6H2O) and addition of 5 mg/ml of glycogen. Test substances were prepared as a 10 mM solution in DMSO and diluted to 50 μM with buffer solution T. To 10 μl of this solution were added 10 μl of 37.5 mM glucose dissolved in buffer solution T and 5 mg/ml of glycogen, and also 10 μl of a solution of human glycogen phosphorylase a (10 μg of protein/ml) and 20 μl of 2.5 mM glucose 1-phosphate. The base value of the activity of glycogen phosphorylase a in the absence of test substance was determined by adding 10 μl of buffer solution T (0.1% DMSO). The mixture was incubated at room temperature for 40 minutes and the released inorganic phosphate was determined by means of the general method of Drueckes et al. (Drueckes P, Schinzel R, Palm D, Anal Biochem 1995 Sep. 1;230(1):173–177) with the following modifications: 50 μl of a stop solution of 7.3 mM of ammonium molybdate, 10.9 mM of zinc acetate, 3.6% of ascorbic acid, 0.9% of SDS are added to 50 μl of the enzyme mixture. After 60 minutes of incubation at 45° C., the absorption was measured at 820 nm. To determine the background absorption, the stop solution was added immediately after the addition of the glucose 1-phosphate solution in a separate reaction.

For `COc1ccc(NC(C)=O)cc1NC(=O)NC(=O)c1cc(F)c(F)cc1Cl` [Example 1, N-{3-[3-(2-Chloro-4,5-difluorobenzoyl)ureido]-4-methoxyphenyl}acetamide], the inhibition at 10 µM was 99%.

`COC(=O)C(=O)Nc1ccc(OC)c(NC(=O)NC(=O)c2cc(F)c(F)cc2Cl)c1` [Example 2] and `COc1ccc(NC(=O)C(=O)O)cc1NC(=O)NC(=O)c1cc(F)c(F)cc1Cl` [Example 5] are the same in “% Inhibition at 10 μM” value: 99% for the first, 99% for the second.

Going from `COC(=O)CC(=O)Nc1ccc(OC)c(NC(=O)NC(=O)c2cc(F)c(F)cc2Cl)c1` [Example 3] to `COC(=O)CCC(=O)Nc1ccc(OC)c(NC(=O)NC(=O)c2cc(F)c(F)cc2Cl)c1` [Example 4], the “% Inhibition at 10 μM” value falls from 104% to 97%.

`COc1ccc(NC(=O)CC(=O)O)cc1NC(=O)NC(=O)c1cc(F)c(F)cc1Cl` [Example 6] and `COc1ccc(NC(=O)CCC(=O)O)cc1NC(=O)NC(=O)c1cc(F)c(F)cc1Cl` [Example 7] are the same in “% Inhibition at 10 μM” value: 100% for the first, 100% for the second.

`COc1ccc(NC(=O)CCC(N)=O)cc1NC(=O)NC(=O)c1cc(F)c(F)cc1Cl` [Example 8] and `COc1ccc(NC(=O)CCN)cc1NC(=O)NC(=O)c1cc(F)c(F)cc1Cl` [Example 55] are the same in “% Inhibition at 10 μM” value: 100% for the first, 100% for the second.

`COC(=O)CC(=O)Nc1cc(NC(=O)NC(=O)c2cc(F)c(F)cc2Cl)c(C)cc1OC` [Example 10] and `COC(=O)CC(=O)Nc1cc(NC(=O)NC(=O)c2cc(F)c(F)cc2Cl)c(OC)cc1C` [Example 16] are the same in “% Inhibition at 10 μM” value: 95% for the first, 95% for the second.

Compared with `COc1cc(C)c(NC(=O)NC(=O)c2cc(F)c(F)cc2Cl)cc1NC(=O)CC(=O)O` [Example 11], `COc1cc(C)c(NC(=O)CC(=O)O)cc1NC(=O)NC(=O)c1cc(F)c(F)cc1Cl` [Example 18] is higher in “% Inhibition at 10 μM” value: 96% for the first, 99% for the second.

Compared with `COc1cc(C)c(NC(=O)NC(=O)c2cc(F)c(F)cc2Cl)cc1NC(=O)CCC(=O)O` [Example 12], `COc1cc(C(=O)O)c(NC(=O)CCC(=O)O)cc1NC(=O)NC(=O)c1cc(F)c(F)cc1Cl` [Example 26] is higher in “% Inhibition at 10 μM” value: 90% for the first, 97% for the second.

Compared with `COc1cc(C)c(NC(=O)NC(=O)c2cc(F)c(F)cc2Cl)cc1NC(=O)C(=O)O` [Example 13], `COc1cc(C)c(NC(=O)C(=O)O)cc1NC(=O)NC(=O)c1cc(F)c(F)cc1Cl` [Example 17] is higher in “% Inhibition at 10 μM” value: 94% for the first, 100% for the second.

Compared with `COc1cc(C)c(NC(C)=O)cc1NC(=O)NC(=O)c1cc(F)c(F)cc1Cl` [Example 14], `COC(=O)C(=O)Nc1cc(NC(=O)NC(=O)c2cc(F)c(F)cc2Cl)c(OC)cc1C` [Example 15] is higher in “% Inhibition at 10 μM” value: 91% for the first, 101% for the second.

Going from `COc1cc(C(=O)O)c(NC(C)=O)cc1NC(=O)NC(=O)c1cc(F)c(F)cc1Cl` [Example 19] to `COc1cc(C(=O)O)c(NC(=O)C(=O)O)cc1NC(=O)NC(=O)c1cc(F)c(F)cc1Cl` [Example 25], the “% Inhibition at 10 μM” value falls from 97% to 95%.

Compared with `CCOC(=O)c1cc(OC)c(NC(=O)NC(=O)c2cc(F)c(F)cc2Cl)cc1NC(C)=O` [Example 20], `COc1cc(C(=O)O)c(NC(=O)CC(=O)O)cc1NC(=O)NC(=O)c1cc(F)c(F)cc1Cl` [Example 22] is higher in “% Inhibition at 10 μM” value: 95% for the first, 96% for the second.

First: COCC(=O)Nc1ccc(OC)c(NC(=O)NC(=O)c2cc(F)c(F)cc2Cl)c1 [Example 27]
Second: CCC(=O)Nc1ccc(OC)c(NC(=O)NC(=O)c2cc(F)c(F)cc2Cl)c1 [Example 30]
The “% Inhibition at 10 μM” value of the first is lower: 98% for the first, 101% for the second.

First: COc1ccc(NC(=O)c2cccnc2)cc1NC(=O)NC(=O)c1cc(F)c(F)cc1Cl [Example 28]
Second: COc1ccc(NC(=O)c2cccc(F)c2)cc1NC(=O)NC(=O)c1cc(F)c(F)cc1Cl [Example 45]
The “% Inhibition at 10 μM” value of the first is lower: 89% for the first, 97% for the second.

Compared with `COc1ccc(NC(=O)c2cccs2)cc1NC(=O)NC(=O)c1cc(F)c(F)cc1Cl` [Example 29], `COc1ccc(NC(=O)c2ccco2)cc1NC(=O)NC(=O)c1cc(F)c(F)cc1Cl` [Example 32] is higher in “% Inhibition at 10 μM” value: 98% for the first, 102% for the second.

First: COc1ccc(NC(=O)C2CC2)cc1NC(=O)NC(=O)c1cc(F)c(F)cc1Cl [Example 31]
Second: COc1ccc(NC(=O)C2CCC2)cc1NC(=O)NC(=O)c1cc(F)c(F)cc1Cl [Example 44]
The “% Inhibition at 10 μM” value of the first is lower: 98% for the first, 101% for the second.

Going from `COc1ccc(NC(=O)C2CCCC2)cc1NC(=O)NC(=O)c1cc(F)c(F)cc1Cl` [Example 33] to `COc1ccc(NC(=O)CN)cc1NC(=O)NC(=O)c1cc(F)c(F)cc1Cl` [Example 52], the “% Inhibition at 10 μM” value rises from 96% to 101%.

Compared with `COc1ccc(NC(=O)c2ccccc2OC)cc1NC(=O)NC(=O)c1cc(F)c(F)cc1Cl` [Example 34], `COc1ccc(NC(=O)c2ccccc2F)cc1NC(=O)NC(=O)c1cc(F)c(F)cc1Cl` [Example 36] is higher in “% Inhibition at 10 μM” value: 97% for the first, 101% for the second.

First: CC=CC(=O)Nc1ccc(OC)c(NC(=O)NC(=O)c2cc(F)c(F)cc2Cl)c1 [Example 35]
Second: CNCC(=O)Nc1ccc(OC)c(NC(=O)NC(=O)c2cc(F)c(F)cc2Cl)c1 [Example 54]
The “% Inhibition at 10 μM” value of the first is lower: 99% for the first, 100% for the second.

Compared with `COc1ccc(NC(=O)Cc2ccccc2)cc1NC(=O)NC(=O)c1cc(F)c(F)cc1Cl` [Example 37], `COc1cccc(CC(=O)Nc2ccc(OC)c(NC(=O)NC(=O)c3cc(F)c(F)cc3Cl)c2)c1` [Example 41] is higher in “% Inhibition at 10 μM” value: 101% for the first, 104% for the second.

Compared with `COc1ccc2oc(C(=O)Nc3ccc(OC)c(NC(=O)NC(=O)c4cc(F)c(F)cc4Cl)c3)cc2c1` [Example 38], `COc1ccc(NC(=O)c2cc3cc(Cl)ccc3o2)cc1NC(=O)NC(=O)c1cc(F)c(F)cc1Cl` [Example 39] is lower in “% Inhibition at 10 μM” value: 102% for the first, 101% for the second.

Going from `COc1ccc(NC(=O)c2ccc(F)cc2)cc1NC(=O)NC(=O)c1cc(F)c(F)cc1Cl` [Example 40] to `COc1ccc(NC(=O)c2ccccc2OC(F)(F)F)cc1NC(=O)NC(=O)c1cc(F)c(F)cc1Cl` [Example 51], the “% Inhibition at 10 μM” value falls from 98% to 92%.

Compared with `COc1ccc(NC(=O)C(=O)c2c[nH]c3ccccc23)cc1NC(=O)NC(=O)c1cc(F)c(F)cc1Cl` [Example 42], `COc1ccc(NC(=O)COC(C)=O)cc1NC(=O)NC(=O)c1cc(F)c(F)cc1Cl` [Example 49] is higher in “% Inhibition at 10 μM” value: 83% for the first, 99% for the second.

First: C=CCCC(=O)Nc1ccc(OC)c(NC(=O)NC(=O)c2cc(F)c(F)cc2Cl)c1 [Example 46]
Second: CCCCC(=O)Nc1ccc(OC)c(NC(=O)NC(=O)c2cc(F)c(F)cc2Cl)c1 [Example 47]
The “% Inhibition at 10 μM” value of the first is lower: 102% for the first, 105% for the second.

First: CCOC(=O)CCC(=O)Nc1ccc(OC)c(NC(=O)NC(=O)c2cc(F)c(F)cc2Cl)c1 [Example 48]
Second: COc1ccc(NC(=O)CCCN)cc1NC(=O)NC(=O)c1cc(F)c(F)cc1Cl [Example 53]
The “% Inhibition at 10 μM” value of the first is lower: 97% for the first, 100% for the second.

Same assay, conditions: 10 μM test substance; GPa measured in reverse direction (glycogen synthesis from glucose 1-phosphate); 10 µM

With `COc1ccc(NC(=O)C(C)C)cc1NC(=O)NC(=O)c1cc(F)c(F)cc1Cl` [Example 43] the “% Inhibition at 10 μM” value was 98%.
In the case of `COc1ccc(NC(=O)C(C)C)cc1NC(=O)NC(=O)c1cc(F)c(F)cc1Cl` [Example 50], the “% Inhibition at 10 μM” value is reported as 94%.
